Publication PMC11642486 (International Journal of Molecular Sciences, 2024)
Counter-ions that a name gives are not always drawn.

Tests used:
[1] = tested on: LPS-activated microglia cells; assay: RNA-sequencing of LPS-activated microglia cells treated with drug; type: cell-based, mouse; details: 30 µM DMF
Experimental: Microglia cells were activated with LPS and treated with the same drug concentrations at the same timepoints. Each experiment was repeated three times. RNA was extracted using the Maxwell® 16 LEV simplyRNA Cells Kit and the robotic platform Maxwell® 16 (both from Promega Biotech Ibérica) following the manufacturer’s instructions. RNA-sequencing was performed as previously described using the NovaSeq 6000 Sequencing System (Illumina, San Diego, CA, USA) by pair-end (150 x 2) and at a sequencing depth of 20 million reads per sample [60]. FastQC v0.12.1 and Cutadapt v4.4 were used for quality control of the raw reads and removal of the adapter sequences, respectively. Trimmomatic v0.39 was employed to further select trimmed reads larger than 20 nucleotides and with a sequencing quality score greater than 30 [62]. Reads were aligned with HISAT2 v2.2.1 to the mouse or rat genome assemblies GRCm39 and mRatBN7.2, respectively. Mapped reads were annotated using Ensembl gene annotation v110 for the mouse genome and v111 for the rat genome and counts quantified using HTSeq v2.0.3 [63]. Gene counts were analyzed using principal components with custom R scripts (R version 4.3.1). DESeq2 v1.40.2 was used for differential expression analysis.

[2] = tested on: nitric oxide (NO) production in microglia; assay: Nitric oxide production (Griess Reagent System) in LPS-activated microglia; type: cell-based, murine; details: for lowest concentration inhibiting the production of NO: LPS-activated microglia
Experimental: DMF and MMF (both from Sigma-Aldrich, Saint Louis, MO, USA) were prepared as stock solutions in dimethyl sulfoxide (DMSO); CBD (Cayman chemical, Ann Arbor, MI, USA) was prepared in ethanol (EtOH). Lipopolysaccharide (LPS) from Escherichia coli 026:B6 in an aqueous solution (Thermo Fisher Scientific) was used as proinflammatory stimuli in microglia at a final concentration of 600 ng/mL. For the LPS experiments, the concentration of fetal bovine serum in the microglia culture medium was reduced to 0.1% immediately before drug treatment. All of the compounds were titrated in their respective vehicle and diluted into the culture media for cell treatments. The final concentration of vehicle (DMSO, EtOH or H2O) was consistent for all treated cells (0.2%).
The concentration of nitrites was measured as an indirect indicator of nitric oxide (NO) production in microglia by using the colorimetric assay Griess Reagent System (Promega Biotech Ibérica, Madrid, Spain). Microglial cells were seeded in 96-well plates, previously treated with 0.1 mg/mL of poly-L-lysine, at a density of 50,000 cells/well. […] The concentration of NO was quantified at a wavelength of 520 nm in an absorbance reader plate. Experiments were repeated three times, each condition in triplicate.

[3] = after oral intake of the therapeutic dose established for DMF; cited from earlier work
NF-kB p65 = NF-kB p65 nuclear translocation by immunofluorescence in LPS-activated microglia; type: cell-based, murine; details: LPS + drug 30 min
Experimental: Lipopolysaccharide (LPS) from Escherichia coli 026:B6 in an aqueous solution (Thermo Fisher Scientific) was used as proinflammatory stimuli in microglia at a final concentration of 600 ng/mL. For the LPS experiments, the concentration of fetal bovine serum in the microglia culture medium was reduced to 0.1% immediately before drug treatment. All of the compounds were titrated in their respective vehicle and diluted into the culture media for cell treatments. The final concentration of vehicle (DMSO, EtOH or H2O) was consistent for all treated cells (0.2%).
For the immunofluorescence experiments, neurons and microglia were directly seeded on glass coverslips previously treated with 1 mg/mL of poly-L-lysine. […] After the drug treatments, the cells were fixed on ice with 4% paraformaldehyde for 25 min and then permeabilized and blocked using 0.1% Triton X-100 (10 min) and 5% BSA (30 min), respectively. Cells were then incubated overnight with the primary antibodies and 1% BSA at 4 °C. The primary antibodies anti-Nrf2 (ab1375550) and anti-NF-kB p65 (ab16502) (both from Abcam, Cambridge, United Kingdom) were used at 1:200. After washing with PBS, cells were incubated with the fluorophore-conjugated secondary antibody anti-Rabbit IgG Alexa Fluor 488 (Thermo Fisher Scientific) at 1:500 for 1 h at room temperature. Cells were counterstained with the TO-PRO fluorescent dye (Thermo Fisher Scientific) to visualize the cell nuclei. Images were captured using the confocal microscope Leica TCS SP5 (Leica Microsystems, Wetzlar, Germany). For each experimental condition, five random fields were captured and analyzed using ImageJ software (National Institutes of Health, Maryland, DC, USA). Activation of Nrf2 or NF-kB was defined as nuclear translocation, measured by the increase in the mean fluorescence intensity (MFI) in the nucleus. Each experiment was repeated three times.

| Structure (SMILES) | number of downregulated DEGs vs LPS alone ([1]; 4 h, 30 µM MMF) | number of upregulated DEGs vs LPS alone ([1]; 4 h, 30 µM MMF) | number of DEGs vs cells treated with LPS alone ([1]; 4 h, 30 µM MMF, 6 µM CBD) | number of DEGs with strong downregulation ([1]; 24 h) | number of DEGs with strong upregulation ([1]; 24 h) | number of downregulated DEGs vs LPS alone ([1]; 24 h, 6 µM CBD) | number of upregulated DEGs vs LPS alone ([1]; 24 h, 6 µM CBD) | number of DEGs vs cells treated with LPS alone ([1]; 24 h, 30 µM MMF, 6 µM CBD) | concentration of NO in the supernatant ([2]; LPS + drug, 48 and 72 h, all studied concentrations from 1 µM, LPS alone around 40 µM) | lowest concentration inhibiting the production of NO [2] [µM] | concentration of MMF detected in the brain [3] | inhibition of NO production, in words ([2]; LPS + drug, 24 h) | inhibition of NO production vs LPS-treated cells, in words ([2]; LPS + drug, same concentrations as DMF (from 1 µM)) | effect on LPS-induced NF-kB p65 nuclear translocation, in words (NF-kB p65; any of the studied concentrations) | concentration of NO in the supernatant, in words ([2]; LPS + drug, 10 µM) | concentration of NO in the supernatant ([2]; LPS + drug, starting from 6 µM, all timepoints, LPS alone around 40 µM at 48 and 72 h) | effect on LPS-induced NF-kB p65 nuclear translocation, in words (NF-kB p65; 4 µM) | effect on LPS-induced NF-kB p65 nuclear translocation, in words (NF-kB p65; 6 µM) | effect on LPS-induced NF-kB p65 nuclear translocation, in words (NF-kB p65; CBD concentrations higher than 6 µM) |
| --- | --- | --- | --- | --- | --- | --- | --- | --- | --- | --- | --- | --- | --- | --- | --- | --- | --- | --- | --- |
| COC(=O)/C=C/C(=O)OC [DMF, Dimethyl fumarate] | 340 | 202 | 542 | 67 | 128 | 146 | 230 | 376 | around 20 µM | ≤ 1 |  |  |  |  |  |  |  |  |  |
| COC(=O)/C=C/C(=O)O [MMF, monomethyl fumarate] | three | five | eight |  |  |  |  | could not detect any transcriptomic changes |  |  | approximately 100 µM | significant NO inhibition | halving the concentrations of NO | did not prevent the activation of NF-KB |  |  |  |  |  |
| C=C(C)[C@@H]1CCC(C)=C[C@H]1c1c(O)cc(CCCCC)cc1O [CBD, cannabidiol] |  |  | 2 |  |  | 1265 | 1345 | 2610 |  | 6 |  |  |  |  | almost undetectable | below 10 µM | inhibition of NF-kB p65 | inhibition of NF-kB p65 | this inhibition was not achieved |
